From PubChem BioAssay AID504739 (National Center for Advancing Translational Sciences (NCATS), 2011)

System: mouse liver microsomes, LC-MS/MS, half-life
Assay: Inhibitors of Bloom's syndrome helicase: Metabolic Stability Profiling
Settings: at 1 µM; stronger effect = higher value
Text: Survival of cells and the faithful propagation of the genome depend on elaborate mechanisms of detecting and repairing DNA damage. Treatment of advanced cancer relies on radiation therapy or chemotherapy, which kill cancer cells by causing extensive DNA damage. It is often found, that cancer cells develop resistance to therapy through enhanced activity of DNA repair functions; this has led to an increased interest in developing drugs that interfere with DNA repair, which could sensitize cancer cells to conventional therapy. Bloom syndrome helicase (BLM), is important in resolving abnormal DNA structures formed during replication or homologous recombination. Shutting down the expression of BLM leads to chromosomal instability and higher radiation sensitivity in cultured cells. After the completion of a qHTS campaign, secondary assays, and rounds of medicinal chemistry, a compound was identified to be further characterized through in vitro ADME assays. Mouse liver microsomes are created through broken up endoplasmic reticulum from mouse liver. These liver microsomes contain many drug metabolizing enzymes, such as Cytochome P-450s and flavin-containing monooxygenases. Because metabolism is major way of drug clearance, this is an important result. […]
1uM of compound in incubated in mouse liver microsome; the reference compound is ketanserin. […] Samples are analyzed with LC-MS/MS.

- half-life: 2 h
Compound: O=C(Nc1ccc(F)c(C(F)(F)F)c1)Nc1nnc(-c2ccncc2)s1
